Laboratory results from patent publication US3937838A, “Orally active bronchospasmolytic compounds and their preparation” (priority 1966, dated 1976).

Legend:
[1] = tested on: spirally cut trachea from the guinea pig; experiment: Bronchospasmolytic effect in vitro (Example 5a), spirally cut trachea; settings: at ED50; pilocarpine contracted; racemic terbutaline
Protocol: Pharmacol. Exp. Ther. 90 (1947) page 104] and later modified by Constantine [J. Pharm. Pharmacol. 17 (1965) page 384]. In this test, guinea pigs are stunned with a blow on the head and bled to death. The trachea is dissected out, cut spirally and mounted in an organ bath (25 ml) in Krebs solution continuously aerated with oxygen (95%) and carbon dioxide (5%). […] The tension of the preparation is measured and is usually about 2 gm. initially. Dose response curves for epinephrine and each of the test compounds are then evaluated on the same muscle preparation.

[2] = tested on: right auricle from the guinea pig; experiment: Dual preparation test in vitro, effect on auricle (Example 5c); settings: slow infusion, FIGS. 2-4
From the text: (§1) [This procedure is more fully described below in Example 5 (b)].
(§2) FIG. 2 illustrates the effect of epinephrine (EPE) and terbutaline on spirally cut trachea and right auricle from the guinea pig. Both preparations are dissected out from the same animal and run under identical experimental conditions;
(§3) Both preparations are dissected out from the same animal, and run under identical experimental conditions;
(§4) Both preparations are dissected out from the same animal and run under identical experimental conditions;
(§5) The relation between the heart stimulatory effect and bronchodilator effect was studied in vitro on auricle-trachea-preparation from the guinea pig in order to compare the effect on the heart and the effect on the bronchial muscle under identical experimental conditions. Both spontaneously bearing auricle and spirally-cut trachea were placed in the same bath in Krebs solution. Both preparations were taken from the same animal.
(§6) The compound to be tested was slowly infused into the bathing solution and the tension was measured for each of the auricle and trachael preparations.
(§7) In carrying out this dual preparation test, epinephrine was used as a reference. […] Infusion of epinephrine was made over a period of ten minutes. After washing and recovery, the test solution was infused in the same manner and the effect of the test compound was compared with the effect of epinephrine.
Referring more specifically to FIG. 2, the upper portion of each chart thereof represents the tension continuously recorded of the auricle preparation (shaded area 1 for the effect of epinephrine on the auricle, ref. no. 2 for the effect of terbutaline infused at a rate of 0.2 μg/min on the auricle, and ref. no. 3 for the effect of terbutaline infused at a rate of 0.375μg/min on the auricle).

[3] = tested on: spirally cut trachea from the guinea pig; experiment: Dual preparation test in vitro, effect on trachea (Example 5c); settings: slow infusion; 0.375 μg/min where stated; FIGS. 2-4
From the text: as §1, §2, §3, §4, §5, §6, §7

[4] = Acute toxicity in mice (Example 9); settings: mouse, in vivo, mice (base)
[5] = tested on: asthmatic patients; experiment: Clinical trials, arterial oxygen tension in asthmatic patients; assay type: in vivo, human; settings: a number of clinical trials
From the text: Because stimulation of the cardiovascular system is thought to be a cause of the adverse effects of many of the prior art compounds on blood oxygen pressures, it is expected that the compounds of the present invention will be less likely to lead to a fall in blood oxygen pressure then compounds such as epinephrine or isoprenaline. The compounds of the present invention have the added advantage of improved longevity of action over all of the compounds described above. […] This improvement has been observed in a number of clinical trials.

## CC(C)(C)NCC(O)c1cc(O)cc(O)c1 (racemic) [terbutaline, 1-(3',5'-dihydroxyphenyl)-2-(t-butylamino)-ethanol]
[1]
  relaxation of trachea, activity relative to orciprenaline: about two
  relaxation of trachea, potency relative to (-)-epinephrine: slightly less potent than (-)-epinephrine
[2]; both preparations in same bath
  cardiac stimulation in relation to bronchodilator effect: bronchodilation was obtained without any effect on the heart muscle preparation
[2]; 0.375 μg/min where stated
  effect on auricle (tension): little observable effect on the auricle
[3]
  effect on trachea (relaxation): nearly comparable to that of epinephrine infused at the same rate
[4]; iv
  LD50: 47 mg/kg
[4]; sc
  LD50: 240 mg/kg
[4]; oral
  LD50: 3200 mg/kg
[5]
  arterial oxygen tension: improved arteriel oxygen tension in asthmatic patients
